A short description of the series: in vitro. The conditions noted are these: isolated enzyme chymotrypsin, pH 7.8.

Method: Ratio enzyme (units):peptide (μmoles) ˜1:33. […] Ratio enzyme (units):peptide (μmoles) ˜1:2.5.
15 μL aliquots (˜15 μg initial peptide) of the peptide-enzyme mixture are periodically withdrawn (t=0, 30 mins, 1 hr, 2 hr, 4 hr, 8 hr, 24 hr) and quenched immediately by addition to an equal volume (15 μL) of 5% TFA (v/v) in 1:1 water/acetonitrile to arrest proteolytic activity. 20 μL aliquots (˜10 μg initial peptide) are analysed by LC/MS and/or analytical RP-HPLC as follows: LC/MS method: Agilent Polaris C8-A column (4.6×100 mm, 3 micron) elutes with a linear binary gradient of 10-90% MeCN (0.1% TFA v/v) in water (0.1% TFA v/v) over 30 mins at 1.5 mL min^−1 at ambient temperature with detection by both UV absorption at 210 nm and ionization using a Waters 3100 mass detector (ESI^+ mode). Peptide fragments deriving from enzymatic hydrolysis are identified by molecular weight, allowing location of the site of cleavage. Analytical RP-HPLC method: Agilent Polaris C8-A column (4.6×100 mm, 3 micron) elutes with a linear binary gradient of 10-90% MeCN (0.1% TFA v/v) in water (0.1% TFA v/v) over either 10 or 15 mins at 1.5 mL min^−1 at 40° C. with detection by UV absorption at 210 nm. Manual integration (AUC) allows estimation of remaining intact peptide over the time course of the experiment.
25 μL aliquots (˜6 μg initial peptide) are analysed by LC/MS and/or analytical RP-HPLC as follows: LC/MS method: Agilent Polaris C8-A column (4.6×100 mm, 3 micron) elutes with a linear binary gradient of 10-90% MeCN (0.1% TFA v/v) in water (0.1% TFA v/v) over 30 mins at 1.5 mL min^−1 at ambient temperature with detection by both UV absorption at 210 nm and ionization using a Waters 3100 mass detector (ESI±mode). Peptide fragments deriving from enzymatic hydrolysis are identified by molecular weight, allowing location of the site of cleavage. Analytical RP-HPLC method: Agilent Polaris C8-A column (4.6×100 mm, 3 micron) elutes with a linear binary gradient of 10-90% MeCN (0.1% TFA v/v) in water (0.1% TFA v/v) over either 10 or 15 mins at 1.5 mL min^−1 at 40° C. with detection by UV absorption at 210 nm. Manual integration (AUC) allows estimation of remaining intact peptide over the time course of the experiment.

For the compound `CCCCCCCCCCCCCCCC(=O)N[C@@H](CCC(=O)NCCCC[C@H](NC(=O)[C@H](C)NC(=O)[C@H](C)NC(=O)[C@H](CCC(N)=O)NC(=O)CNC(=O)[C@H](CCC(=O)O)NC(=O)[C@H](CC(C)C)NC(=O)[C@H](Cc1ccc(O)cc1)NC(=O)[C@H](CO)NC(=O)[C@H](CO)NC(=O)[C@@H](NC(=O)[C@H](CC(=O)O)NC(=O)[C@H](CO)NC(=O)[C@@H](NC(=O)[C@H](Cc1ccccc1)NC(=O)[C@@H](NC(=O)CNC(=O)[C@H](CCC(=O)O)NC(=O)[C@H](C)NC(=O)[C@@H](N)Cc1cnc[nH]1)[C@@H](C)O)[C@@H](C)O)C(C)C)C(=O)N[C@@H](CCC(=O)O)C(=O)N[C@@H](Cc1ccccc1)C(=O)N[C@H](C(=O)N[C@@H](C)C(=O)N[C@@H](Cc1c[nH]c2ccccc12)C(=O)N[C@@H](CC(C)C)C(=O)N[C@H](C(=O)N[C@@H](CCCNC(=N)N)C(=O)NCC(=O)N[C@@H](CCCNC(=N)N)C(=O)NCC(=O)O)C(C)C)[C@@H](C)CC)C(=O)O` [Liraglutide], the fraction remaining (as a rule, the share of the starting amount still present when the sample was taken) at 1 h was determined as 95.6%.

The values above are taken from patent US20210221866A1, “PROTEASE-RESISTANT LIPIDATED GLP-1 ANALOGS” (MEDIMMUNE LIMITED, priority 2015, published 2021).
